One series addresses purified human GLO1 (Homo sapiens, UniProt Q04760). Kind of series: GLO1 enzymatic activity assay with purified protein. It is filed as biochemical. Conditions: 100 μM BrBzGCp2, 10 ng purified GLO1. The method, then: GLO1 activity was assayed by measuring the rate of formation of S-d-lactoylglutathione (Allen 1993).
Purified protein: 100 ng of purified protein was added to a hemithioacetal substrate, and enzymatic activity was measure as described above.
Enzymatic activity: Vehicle (DMSO) or 100 μM BrBzGCp2 was added to 10 ng of purified human GLO1. Enzymatic activity was measured as described above.

The target in the next series is T1, GLO1 (Mus musculus, UniProt Q9CPU0).
T1 construct: from tissue; host or cells: whole brain of WT C57BL/6J mice, in vivo dosing
Put plainly: HPLC measurement of MG concentration in whole brain after i.p. BrBzGCp2. Format: in vivo. Conditions: BrBzGCp2 30 mg/kg i.p., two hours. The method, then: MG concentration was measured by HPLC as previously described with modifications (Dhar 2009). Tissue was homogenized in 50 mM sodium phosphate buffer (pH 6.6) and 0.8N perchloric acid. It was then incubated on ice for 10 minutes and centrifuged. The supernatant was filtered, and MG was derivatized with 10 mM o-phenylenediamine to form 2-methylquinoxaline (2-MQ). 5-methylquinoxaline (5-MQ, 15 μM) was spiked into each sample as an internal standard. 2-MQ was quantified using an HP 1100 HPLC system (Agilent) with a Nova-Pak C18 column (Waters Corporation). Column effluent was monitored at 315 nm. 2-MQ concentration was determined by comparison to 2-MQ standards of known mass. Quantification of 2-MQ was corrected for losses by comparison with 5-MQ. MG concentration was calculated as 2-MQ/tissue weight.
Treatment: BrBzGCp2 was dissolved in vehicle (8% DMSO and 18% Tween-80). Mice were treated i.p. with 10 ml/kg BrBzGCp2 or vehicle.
HPLC: 2 hours post-injection, mice were sacrificed, and brains were rapidly dissected and flash-frozen on dry ice. MG concentration was measured as described above.

For series [1], the system named is anxiety-like behavior and locomotion in mice. Put plainly: Open field (OF) test. Format: in vivo, mouse. The method, then:
OF test: Mice were placed into the center of the OF, and activity was monitored for five to ten minutes. The apparatus was illuminated to approximately 40 lux. Data were collected and processed using the manufacturer's software (AccuScan Instruments).
OF test: Ten minutes post-injection, mice were placed into the center of the OF. The apparatus was illuminated to approximately 40 lux. Behavior was measured as described above.
OF test replication studies: Ten to twenty minutes post-injection, mice were tested in the OF for five to ten minutes. In some experiments, behavior was scored as described above. In other experiments, mice were tested in the OF, and behavior was automatically scored by the Noldus Ethovision System. For mice tested in the Noldus system, the apparatus was illuminated to approximately 1,000 lux.
Chronic MG administration: For five days, mice were injected twice daily with vehicle or MG (4 mg/kg). Twelve hours after the final injection, mice were tested in the OF as described above.
Pure MG: Pure MG was obtained from Dr. John Termini at the City of Hope, Duarte, Calif. It was administered at the indicated doses by i.p. injection. Mice were tested as described above.
OF test: Two hours post-injection, mice were tested in the OF test as described above. The center size was 10×10 cm. The apparatus was illuminated to approximately 40 lux.

Series [2] relates to depression-like behavior in mice. Kind of series: Tail suspension test (TST). Format: in vivo, mouse. Conditions: pBBG pretreatment. The method, then: Mice were suspended by their tails using adhesive tape attached to a bar elevated approximately 46 cm above a table. The apparatus was illuminated to approximately 1,000 lux. Mice were tested individually, and time spent immobile was scored manually for six minutes. For MG studies, mice were treated with vehicle (0.9% saline) or crude MG (Sigma-Aldrich, 50 mg/kg) by i.p. injection ten minutes before the test. Behavior was scored for five minutes.

For series [3], the system named is pilocarpine-induced seizures. Kind of series: Pilocarpine-induced seizures. It is filed as in vivo, mouse. The method, then:
Drug administration: All experiments with MG utilized crude MG obtained from Sigma-Aldrich. For pre-treatment, MG (50 or 200 mg/kg) or vehicle (0.9% saline) was administered by i.p. injection 10 minutes before the seizure-inducing agent. For treatment after seizure onset, MG (200 mg/kg) or vehicle (0.9% saline) was administered by i.p. injection ten minutes after seizure onset. For GLO1 inhibition, BrBzGCp2 (50 mg/kg) or vehicle (8% DMSO and 18% Tween-80) was administered by i.p. injection two hours before seizure induction.
Seizure induction: For picrotoxin-induced seizures, 5 mg/kg of picrotoxin in 0.9% saline was administered by i.p. injection. Seizures were scored for one hour after picrotoxin administration. For pilocarpine-induced seizures, mice were pre-treated with atropine (5 mg/kg in 0.9% saline) by i.p. injection in order to reduce the peripheral effects of pilocarpine. Thirty minutes after atropine administration, pilocarpine was administered by i.p. injection. B6 mice were treated with 250 mg/kg pilocarpine in 0.9% saline, and FVB mice (WT and Tg) were treated with 300 mg/kg pilocarpine in 0.9% saline. Seizures were scored for 90 minutes after pilocarpine administration.
Pilocarpine-induced seizures were scored as previously reported (Winawer 2011):
Stage 1: Immobility/Lying Low
Stage 2: Partial (limbic) seizures. Non-continuous twitching/tremor/shaking of tail/head/body/limbs, forelimb and/or tail extension, rigid posture, repetitive movements, head bobbing
Stage 3: Partial status epilepticus. Continuous tremor/clonic seizures of body and tail while retaining posture
Stage 4: Generalized seizures. Rearing/hyperexcitability/running/falling, tonic extension/clonic seizures with loss of posture
Stage 5: Generalized status epilepticus (continuous stage 4 seizures) resulting in death

Series [4] deals with depression-like behavior in mice. Kind of series: Forced swim test (FST), acute treatment. Format: in vivo, mouse. The settings on record: pBBG 50 mg/kg i.p., two hours later; C57BL/6J, FVB/nJ and BALB/cJ mice. The method, then: The forced swim test (FST) is a highly reliable screen used to predict antidepressant efficacy after acute antidepressant treatments (Petit-Demouliere, Chenu & Bourin 2005). The FST relies on the phenomenon that relative to no treatment, mice receiving treatment with antidepressants will spend more time performing escape-oriented behaviors than immobile postures. […] Mice on three genetic backgrounds (C57BL/6J, FVB/nJ and BALB/cJ) were treated with 50 mg/kg pBBG (i.p.) and assessed depression-like behavior in the FST two hours later.

Series [5] shares this test system. Kind of series: Chronic forced swim test (cFST), osmotic minipump. The settings on record: 14 days. It is filed as in vivo, mouse. The method, then: To fully assess the therapeutic potential of GLO1 inhibitors, it is necessary to utilize behavioral models sensitive to chronic administration. These models are highly informative as the therapeutic onset of antidepressant action mimics clinical onset in humans. pBBG was administered by osmotic minipumps (Alzet) for 14 days at various doses (0, 5, 10, 15, 30 and 60 mg/kg/day) to establish a dose response curve. Osmotic minipumps are ideal for chronic treatment as they release a constant volume at a very slow rate minimizing the stress of multiple injections.

Series [6] deals with mice. Put plainly: Signs of toxicity after chronic administration. Format: in vivo. Conditions: chronic pBBG by osmotic minipump. The method, then: (A) Chronic (14 day) treatment by osmotic minipump with 5 or 10 mg/kg/day pBBG reduced immobility in the FST, establishing that chronic administration has antidepressant effects.
In series [7] the test system is anxiety-like behavior and locomotion in mice. Put plainly: Open field (OF) test. Format: in vivo, mouse. Conditions: 14 days.
In series [8] the test system is mice. Kind of series: Observation of sedation or gross deficits in treated mice. Conditions: mice treated with BrBzGCp2.
The mark [9] stands for this setting: BrBzGCp2 30 mg/kg i.p., B6 mice, two hours post-injection.

purified human GLO1, sequence (Q04760 whole entry): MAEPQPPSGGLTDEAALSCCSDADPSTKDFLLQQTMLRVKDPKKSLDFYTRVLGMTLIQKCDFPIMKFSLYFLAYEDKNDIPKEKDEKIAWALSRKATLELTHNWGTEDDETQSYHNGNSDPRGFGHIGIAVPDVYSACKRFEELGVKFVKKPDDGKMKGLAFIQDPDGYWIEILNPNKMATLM
T1 sequence (Q9CPU0 2-184 limits assumed): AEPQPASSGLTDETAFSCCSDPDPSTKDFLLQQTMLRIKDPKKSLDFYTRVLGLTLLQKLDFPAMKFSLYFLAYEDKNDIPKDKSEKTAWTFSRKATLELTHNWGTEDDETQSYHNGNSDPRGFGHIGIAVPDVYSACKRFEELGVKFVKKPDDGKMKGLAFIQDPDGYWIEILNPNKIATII

Consider `N[C@@H](CCC(=O)N[C@@H](CSCc1ccc(Br)cc1)C(=O)NCC(=O)OC1CCCC1)C(=O)OC1CCCC1` [BrBzGCp2, S-bromobenzylglutathione cyclopentyl diester], for which, on purified human GLO1, the GLO1 enzymatic activity result is “inhibit GLO1 enzymatic activity in vitro”. Also, the “increase of MG concentration in the brain” value on GLO1 was “approximately 20%”. In addition, in [1] (setting [9]), the “center time in the OF test” value is reported as “increased center time in the OF test”. Further, in [1] (setting [9]), the “distance traveled in the OF test” value was “without changing distance traveled”. In addition, in series [1] (BrBzGCp2 50 mg/kg i.p., CD-1 mice with Glo1 duplication), the “anxiogenic effect of the Glo1 duplication in the OF” value is “reversed this effect”. Further, the “center time in the OF” value in series [1] (BrBzGCp2 50 mg/kg i.p., CD-1 mice, two hours post-injection) is reported as “increased center time in the OF”. For the same compound, the “immobility on the TST” value in [2] (C57BL/6J (B6) mice) and in [2] (FVB/NJ mice) was “decreased immobility on the TST” throughout. For the same compound, in [3] (BrBzGCp2 50 mg/kg i.p. two hours before pilocarpine), the seizure stage entry is on record as “did not affect seizure stage”. The “seizure duration (time in stage 3)” value in series [3] (BrBzGCp2 50 mg/kg i.p. two hours before pilocarpine 250 mg/kg) is listed as “reduced seizure durations”. Moreover, in series [3] (BrBzGCp2 50 mg/kg i.p. two hours before pilocarpine, data not shown), the seizure latency entry is reported as “did not significantly affect seizure latency”. Also, in series [4], the “immobility in the FST” value is recorded as “reduced immobility in all strains”. Further, in [5] (pBBG 5 mg/kg/day), the “immobility in the FST compared with fluoxetine” value is on record as “reduced immobility in the FST to a similar extent as a selective serotonin reuptake inhibitor”. Moreover, the “immobility in the FST after chronic treatment” value was “reduce immobility in the FST” in series [5] (pBBG 5 or 10 mg/kg/day) and “increased immobility in the FST” in series [5] (pBBG 30, 60 mg/kg/day). For the same compound, the “signs of toxicity following chronic administration” value in the series with mice [6] was “none were observed”. Besides, the “total distance traveled in the OFT” value in [7] (pBBG 5, 10, or 15 mg/kg/day) is recorded as “had no effect on total distance traveled in the OFT”; in series [7] (pBBG 15, 30 or 60 mg/kg/day) it was “also had no effect on total distance traveled”. Besides, the “sedation or gross deficits” value in the series with mice [8] is reported as “did not display sedation or gross deficits”.

Values taken from US11235020B2, “Methods and compositions for inhibiting glyoxalase 1 (GLO1)” (priority 2013, dated 2022).
